Measurements reported in PubChem BioAssay (NCI).
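1) Cells in 96-well plates. 2) Compound, 48 h, 5 concentrations. 3) Linear interpolation between surrounding doses. 4) Unreached endpoint = highest concentration. TGI: concentration producing complete growth inhibition.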

Columns and labels:
Experiment in all cases: NCI tumour cell line growth inhibition, 48 h
[1] = test system: HOP-92 NSCLC
[2] = test system: UACC-62 melanoma
[3] = test system: MDA-MB-435
[4] = test system: OVCAR-8 ovarian
[5] = test system: OVCAR-3 ovarian
[6] = test system: UACC-257 melanoma
[7] = test system: DU-145 prostate
[8] = test system: NCI-H23 lung
[9] = test system: SK-MEL-28 melanoma
[10] = test system: BT-549 breast
[11] = test system: LOX IMVI melanoma
[12] = test system: OVCAR-4 ovarian
[13] = test system: NCI/ADR-RES ovarian
[14] = test system: MDA-N
[15] = test system: RXF 393 renal
[16] = test system: MOLT-4 leukemia
[17] = test system: M14 melanoma
[18] = test system: IGROV1 ovarian
[19] = test system: SR leukemia
[20] = test system: HT29 colon
[21] = test system: HCC-2998 colon
[22] = test system: CCRF-CEM leukemia
[23] = test system: NCI-H460 lung
[24] = test system: EKVX NSCLC
[25] = test system: TK-10 renal
[26] = test system: SF-295 CNS
[27] = test system: MDA-MB-231 breast
[28] = test system: HCT-15 colon
[29] = test system: SF-268 CNS
[30] = test system: SW-620 colon
[31] = test system: SNB-75 CNS
[32] = test system: COLO 205 colon
[33] = test system: SF-539 CNS
[34] = test system: CAKI-1 renal
[35] = test system: HCT-116 colon
[36] = test system: HL-60(TB) leukemia
[37] = test system: T-47D breast
[38] = test system: MCF7 breast
[39] = test system: K-562 leukemia
[40] = test system: A549 NSCLC
[41] = test system: UO-31 renal
[42] = test system: HOP-62 NSCLC
[43] = test system: MALME-3M melanoma
[44] = test system: OVCAR-5 ovarian
[45] = test system: SK-MEL-2 melanoma
[46] = test system: SK-OV-3 ovarian
[47] = test system: SK-MEL-5 melanoma
[48] = test system: PC-3 prostate
[49] = test system: SN12C renal
[50] = test system: A498 renal
[51] = test system: HS 578T breast
[52] = test system: U251 CNS
[53] = test system: NCI-H226 lung
[54] = test system: ACHN renal
[55] = test system: KM12 colon
[56] = test system: RPMI-8226 leukemia
[57] = test system: SNB-19 CNS
[58] = test system: 786-0 renal
[59] = test system: NCI-H522 lung

CCN1CCC(O)(/C=C/c2ccccc2C)C(C(=O)/C=C/c2ccccc2C)C1 (configuration not stated)
TGI [1]: 3.38 µM | TGI [2]: 10.7 µM | TGI [3]: 7.04 µM | TGI [4]: 7.85 µM | TGI [5]: 4.77 µM | TGI [6]: 9.31 µM | TGI [7]: 4.05 µM | TGI [8]: 4.11 µM | TGI [9]: 6.71 µM | TGI [10]: 6.44 µM | TGI [11]: 3.38 µM | TGI [12]: 12.5 µM | TGI [13]: 12.7 µM | TGI [14]: 8.88 µM | TGI [15]: 3.67 µM | TGI [16]: 6.12 µM | TGI [17]: 4.45 µM | TGI [18]: 14.5 µM | TGI [19]: > 100 µM | TGI [20]: 6.7 µM | TGI [21]: 2.61 µM | TGI [22]: 4.85 µM | TGI [23]: 3.18 µM | TGI [24]: 16.8 µM | TGI [25]: 10.1 µM | TGI [26]: 6.68 µM | TGI [27]: 7.11 µM | TGI [28]: 3.8 µM | TGI [29]: 14 µM | TGI [30]: 10.1 µM | TGI [31]: 16.6 µM | TGI [32]: 3.13 µM | TGI [33]: 4.28 µM | TGI [34]: 3.21 µM | TGI [35]: 3.38 µM | TGI [36]: 4.85 µM | TGI [37]: 4.32 µM | TGI [38]: 7.37 µM | TGI [39]: > 100 µM | TGI [40]: 12.8 µM | TGI [41]: 3 µM | TGI [42]: 3.74 µM | TGI [43]: 16.3 µM | TGI [44]: 3.99 µM | TGI [45]: 5.57 µM | TGI [46]: 21 µM | TGI [47]: 2.9 µM | TGI [48]: 4.05 µM | TGI [49]: 4.6 µM | TGI [50]: 4.55 µM | TGI [51]: 16.2 µM | TGI [52]: 7.25 µM

CCC(=O)C(CCN1CCC2(CCCc3ccccc32)CC1)(c1ccccc1)c1ccccc1
TGI [1]: 4.03 µM | TGI [2]: 10.7 µM | TGI [3]: 12.5 µM | TGI [4]: 14 µM | TGI [53]: 6.58 µM | TGI [5]: 6.67 µM | TGI [54]: 11.3 µM | TGI [55]: 4.64 µM | TGI [6]: 5.51 µM | TGI [7]: 11.6 µM | TGI [8]: 5.45 µM | TGI [56]: 2.35 µM | TGI [9]: 14 µM | TGI [10]: 3.36 µM | TGI [11]: 2.16 µM | TGI [12]: 18.7 µM | TGI [13]: 14.3 µM | TGI [14]: 10.9 µM | TGI [15]: 6.18 µM | TGI [17]: 4.56 µM | TGI [18]: 10.3 µM | TGI [19]: 5.9 µM | TGI [20]: 6.01 µM | TGI [21]: 7.44 µM | TGI [22]: > 100 µM | TGI [23]: 9.4 µM | TGI [24]: 17.6 µM | TGI [25]: 11 µM | TGI [26]: 4.9 µM | TGI [57]: 20.6 µM | TGI [27]: 5.78 µM | TGI [28]: 15.1 µM | TGI [29]: 16.4 µM | TGI [30]: 12.9 µM | TGI [31]: > 27.2 µM | TGI [32]: 2.91 µM | TGI [33]: 7.3 µM | TGI [34]: 14.5 µM | TGI [35]: 3.22 µM | TGI [36]: 5.12 µM | TGI [37]: 10.2 µM | TGI [38]: 10.9 µM | TGI [40]: 15.6 µM | TGI [41]: 8.66 µM | TGI [42]: 8.91 µM | TGI [43]: 3.76 µM | TGI [44]: 14.7 µM | TGI [58]: 6.09 µM | TGI [45]: 4.34 µM | TGI [59]: 7.14 µM | TGI [46]: 18.2 µM | TGI [47]: 2.9 µM | TGI [48]: 8.87 µM | TGI [49]: 10.2 µM | TGI [50]: 6.11 µM | TGI [51]: 7.02 µM | TGI [52]: 14 µM

N[C@H](C(=O)O)[C@@H]1CC(Br)=NO1
TGI [1]: > 100 µM | TGI [2]: > 100 µM | TGI [3]: > 100 µM | TGI [4]: > 100 µM | TGI [53]: > 100 µM | TGI [5]: > 100 µM | TGI [54]: > 100 µM | TGI [55]: > 100 µM | TGI [6]: > 100 µM | TGI [7]: > 100 µM | TGI [8]: > 100 µM | TGI [9]: > 100 µM | TGI [10]: > 100 µM | TGI [11]: > 100 µM | TGI [12]: > 100 µM | TGI [13]: > 100 µM | TGI [14]: > 100 µM | TGI [15]: > 100 µM | TGI [16]: > 100 µM | TGI [17]: > 100 µM | TGI [18]: > 100 µM | TGI [19]: > 100 µM | TGI [20]: > 100 µM | TGI [21]: > 100 µM | TGI [22]: > 100 µM | TGI [23]: > 100 µM | TGI [24]: > 100 µM | TGI [25]: > 100 µM | TGI [26]: > 100 µM | TGI [57]: > 100 µM | TGI [27]: > 100 µM | TGI [28]: > 100 µM | TGI [29]: > 100 µM | TGI [30]: > 100 µM | TGI [31]: > 100 µM | TGI [32]: > 100 µM | TGI [33]: > 100 µM | TGI [34]: > 100 µM | TGI [35]: > 100 µM | TGI [36]: > 100 µM | TGI [37]: > 100 µM | TGI [38]: > 100 µM | TGI [39]: > 100 µM | TGI [40]: > 100 µM | TGI [41]: > 100 µM | TGI [42]: > 100 µM | TGI [43]: > 100 µM | TGI [44]: > 100 µM | TGI [58]: > 100 µM | TGI [45]: > 100 µM | TGI [59]: > 100 µM | TGI [46]: > 100 µM | TGI [47]: > 100 µM | TGI [48]: > 100 µM | TGI [49]: > 100 µM | TGI [50]: > 100 µM | TGI [51]: > 100 µM | TGI [52]: > 100 µM
